According to patent US20090048303A1, “Indole-2-carboxamidine derivatives as nmda receptor antago” (priority 2004, published 2009):
Like-named read-outs stand apart in the source and are kept apart here.

What was measured:
[1] = molecular target: T1, NMDA receptors of rat cortical neurons (Rattus norvegicus, UniProt Q00960); assay: NMDA antagonist potency by intracellular calcium measurement (plate reader fluorimeter) in rat cortical cell culture; type: cell-based
T1 construct: primary neocortical cell cultures derived from 17 day old Charles River rat embryos; endogenous in cells; host or cells: primary rat embryonic (E17) neocortical cell culture, 3-7 days in vitro
T1 sequence (Q00960 27-1482, other chains not shown): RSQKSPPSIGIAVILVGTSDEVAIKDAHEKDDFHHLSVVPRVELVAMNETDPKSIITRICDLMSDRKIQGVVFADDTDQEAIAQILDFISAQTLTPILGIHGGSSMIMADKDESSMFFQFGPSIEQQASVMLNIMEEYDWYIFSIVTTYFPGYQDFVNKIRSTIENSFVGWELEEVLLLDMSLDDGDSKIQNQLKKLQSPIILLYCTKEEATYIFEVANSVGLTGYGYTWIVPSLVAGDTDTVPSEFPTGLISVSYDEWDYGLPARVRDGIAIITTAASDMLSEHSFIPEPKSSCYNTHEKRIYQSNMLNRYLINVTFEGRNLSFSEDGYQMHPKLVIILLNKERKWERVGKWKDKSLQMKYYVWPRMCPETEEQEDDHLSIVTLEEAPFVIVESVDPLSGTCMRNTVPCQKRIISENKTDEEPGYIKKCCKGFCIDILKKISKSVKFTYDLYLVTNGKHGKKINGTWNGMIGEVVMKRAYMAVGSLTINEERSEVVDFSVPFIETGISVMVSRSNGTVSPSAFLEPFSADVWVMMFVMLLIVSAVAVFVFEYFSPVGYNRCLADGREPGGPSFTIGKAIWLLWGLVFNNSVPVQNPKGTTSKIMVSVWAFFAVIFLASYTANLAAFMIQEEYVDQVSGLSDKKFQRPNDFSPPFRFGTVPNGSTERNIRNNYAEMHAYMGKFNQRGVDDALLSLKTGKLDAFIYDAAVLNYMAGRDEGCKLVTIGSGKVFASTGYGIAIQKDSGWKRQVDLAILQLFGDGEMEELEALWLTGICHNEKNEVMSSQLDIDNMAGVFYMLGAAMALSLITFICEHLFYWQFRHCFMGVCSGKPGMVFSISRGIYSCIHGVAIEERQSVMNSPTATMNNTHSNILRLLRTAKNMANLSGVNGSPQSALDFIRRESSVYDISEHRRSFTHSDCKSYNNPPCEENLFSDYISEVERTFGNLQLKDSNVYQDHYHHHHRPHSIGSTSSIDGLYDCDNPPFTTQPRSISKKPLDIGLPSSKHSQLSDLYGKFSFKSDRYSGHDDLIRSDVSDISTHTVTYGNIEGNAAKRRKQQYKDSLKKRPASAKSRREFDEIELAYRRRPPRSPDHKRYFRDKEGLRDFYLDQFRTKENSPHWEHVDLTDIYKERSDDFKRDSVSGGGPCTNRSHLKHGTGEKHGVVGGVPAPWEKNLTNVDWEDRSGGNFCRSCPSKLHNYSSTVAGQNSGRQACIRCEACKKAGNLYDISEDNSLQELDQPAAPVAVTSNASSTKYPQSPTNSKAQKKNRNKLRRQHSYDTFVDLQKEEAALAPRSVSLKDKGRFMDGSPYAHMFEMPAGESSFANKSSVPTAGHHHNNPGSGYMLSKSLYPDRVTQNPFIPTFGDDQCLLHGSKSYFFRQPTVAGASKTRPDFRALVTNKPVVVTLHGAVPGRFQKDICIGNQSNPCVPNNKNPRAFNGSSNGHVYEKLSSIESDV
Experimental: Assessment of NMDA Antagonist Potency In Vitro by Measurement of Intracellular Calcium Concentration with a Plate Reader Fluorimeter in Rat Cortical Cell Culture
The intracellular calcium measurements were carried out on primary neocortical cell cultures derived from 17 day old Charles River rat embryos (for the details on the preparation of neocortical cell culture see Johnson, M. I.; Bunge, R. P. (1992): Primary cell cultures of peripheral and central neurons and glia. In: Protocols for Neural Cell Culture, eds: Fedoroff, S.; Richardson A., The Humana Press Inc., 51-75.) After isolation the cells were plated onto standard 96-well microplates and the cultures were maintained in an atmosphere of 95% air-5% CO2 at 37° C. until the calcium measurements.
The cultures were used for the intracellular calcium measurements after 3-7 days in vitro. Before the measurement the cells were loaded with a fluorescent Ca^2+-sensitive dye, Fluo-4/AM (2 μM). To stop the loading the cells were washed twice with the solution used for the measurement (140 mM NaCl, 5 mM KCl, 2 mM CaCl2, 5 mM HEPES, 5 mM HEPES-Na, 20 mM glucose, 10 μM glycine, pH=7.4). After washing the test compounds were added to the cells in the above solution (90 μl/well). Intracellular calcium measurements were carried out with a plate reader fluorimeter: elevation of Fluo-4-fluorescence and so, intracellular calcium was induced by application of 40 μM NMDA. Inhibitory potency of the test compounds was assessed by measuring the reduction in the calcium elevation in the presence of different concentrations of the compounds.
(§1) Dose-response curves and IC50 values were calculated by using data derived from at least three independent experiments. Inhibitory potency of a compound at a single concentration point was expressed as percent inhibition of the NMDA response. Sigmoidal concentration-inhibition curves were fit to the data and IC50 values were determined as the concentration that produces half of the maximal inhibition caused by the compound.

[2] = cited from earlier work
[3] = molecular target: T2, recombinant NMDA receptors NR1(−3)/NR2A (Homo sapiens, UniProt Q05586+Q12879); assay: Inhibition of NMDA evoked cytosolic calcium elevation in HEK 293 cells expressing recombinant NR1-3/NR2A; type: cell-based; conditions: NR1-3/NR2A subunit expressing cells; for inhibition at 10 µM / inhibition at 15 µM: HEK293
T2 construct: expressed in transfected cells
T2 sequence (Q12879 23-1464, other chains not shown): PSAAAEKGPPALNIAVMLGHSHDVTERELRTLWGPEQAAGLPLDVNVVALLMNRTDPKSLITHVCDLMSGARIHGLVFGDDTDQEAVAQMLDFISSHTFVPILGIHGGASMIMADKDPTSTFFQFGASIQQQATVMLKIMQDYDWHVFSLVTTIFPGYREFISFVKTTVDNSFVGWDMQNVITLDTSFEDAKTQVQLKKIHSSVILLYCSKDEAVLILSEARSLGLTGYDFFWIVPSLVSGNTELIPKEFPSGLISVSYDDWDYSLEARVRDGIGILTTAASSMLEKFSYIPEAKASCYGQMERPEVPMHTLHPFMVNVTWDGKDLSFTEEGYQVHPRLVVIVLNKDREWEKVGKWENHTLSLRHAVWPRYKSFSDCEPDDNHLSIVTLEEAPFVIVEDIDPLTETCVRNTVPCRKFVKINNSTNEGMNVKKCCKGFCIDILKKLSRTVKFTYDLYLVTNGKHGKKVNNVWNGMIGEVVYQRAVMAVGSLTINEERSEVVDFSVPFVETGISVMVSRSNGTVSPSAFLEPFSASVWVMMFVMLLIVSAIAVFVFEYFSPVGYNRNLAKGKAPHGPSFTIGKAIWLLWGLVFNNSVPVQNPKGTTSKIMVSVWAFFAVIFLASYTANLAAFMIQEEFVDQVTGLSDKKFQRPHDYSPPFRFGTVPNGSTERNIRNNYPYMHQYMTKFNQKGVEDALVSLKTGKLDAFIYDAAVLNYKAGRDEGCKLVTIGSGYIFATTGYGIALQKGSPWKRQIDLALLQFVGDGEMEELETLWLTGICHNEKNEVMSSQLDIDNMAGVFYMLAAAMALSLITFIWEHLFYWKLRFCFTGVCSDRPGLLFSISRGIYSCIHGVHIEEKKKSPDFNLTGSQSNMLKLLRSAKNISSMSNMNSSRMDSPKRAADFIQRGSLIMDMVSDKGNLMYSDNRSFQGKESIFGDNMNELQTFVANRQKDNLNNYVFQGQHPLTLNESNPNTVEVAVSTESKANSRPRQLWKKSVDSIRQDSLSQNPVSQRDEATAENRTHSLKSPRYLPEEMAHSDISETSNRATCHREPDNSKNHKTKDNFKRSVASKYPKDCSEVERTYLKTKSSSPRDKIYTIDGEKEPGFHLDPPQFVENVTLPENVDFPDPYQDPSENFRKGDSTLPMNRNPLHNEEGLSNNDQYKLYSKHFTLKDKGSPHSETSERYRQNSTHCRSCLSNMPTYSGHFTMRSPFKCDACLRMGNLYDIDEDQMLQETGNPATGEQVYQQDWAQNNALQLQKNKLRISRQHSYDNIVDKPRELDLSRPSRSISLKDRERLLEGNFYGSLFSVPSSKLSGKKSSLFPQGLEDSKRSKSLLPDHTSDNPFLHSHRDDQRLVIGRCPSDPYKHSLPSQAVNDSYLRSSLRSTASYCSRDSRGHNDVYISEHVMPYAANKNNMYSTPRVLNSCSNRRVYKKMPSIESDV
Experimental: (2003)]. […] Compounds were tested for their inhibitory action on NMDA evoked cytosolic calcium elevations in fluorescent calcium measurements. Studies were performed 48-72 h after addition of the inducing agent. Ketamine (500 μM) was also present during the induction in order to prevent cytotoxicity.
as §1

[4] = rat cortical cells, 40 μM NMDA, fluorimetric method, read-out: Cortical cells IC50

SMILES | IC50 [1, 4] [nM] | further results
O=c1[nH]c2ccc([S+]([O-])CCN3CCC(Cc4ccc(F)cc4)CC3)cc2o1 (stereo not shown) [CI-1041, 6-{2-[4-(4-fluoro-benzyl)-piperidin-1-yl]-ethanesulfinyl}-3H-benzooxazol-2-one, reference compound] | 6.6 | –
C[C@@H]([C@@H](O)c1ccc(O)cc1)N1CCC(O)(c2ccccc2)CC1 [CP 101,606, (1S,2S)-1-(4-hydroxyphenyl)-2-(4-hydroxy-4-phenylpiperidine-1-yl)-1-propanol] | – | effect on neuropathic pain in clinical trial [2]: reduced neuropathic pain; tolerability in clinical trial ([2]; no psychotomimetic effects, hallucinations, dysphoria): well tolerated; inhibition at 10 µM ([3]; 10 μM): 2.5%
Cc1ccc(CC2(O)CCN(CCOc3ccc(O)cc3)CC2)cc1 [Co-101244, 1-[2-(4-hydroxyphenoxy)ethyl]-4-hydroxy-4-(4-methylbenzyl)piperidine, reference compound] | 23 | –
CCOc1ccccc1CNC(=N)c1cc2ccccc2[nH]1 [Compound 19] | 75 | –
N=C(NCc1ccccc1Br)c1cc2ccccc2[nH]1 [Compound 25] | 277 | –
N=C(NCc1cccc(Br)c1)c1cc2ccccc2[nH]1 [Compound 26] | 418 | –
N=C(NCc1ccccc1F)c1cc2ccccc2[nH]1 [Compound 29] | 232 | –
N=C(NCc1cc(F)ccc1F)c1cc2ccccc2[nH]1 [Compound 30] | 224 | –
N=C(NCc1c(F)cccc1F)c1cc2ccccc2[nH]1 [Compound 31] | 143 | –
Cc1ccccc1C/N=C(\N)c1cc2ccccc2[nH]1 [Compound 32] | 170 | –
COc1ccc(OC)c(CNC(=N)c2cc3ccccc3[nH]2)c1 [Compound 35] | 341 | –
COc1cccc(OC)c1CNC(=N)c1cc2ccccc2[nH]1 [Compound 36] | 5.4 | inhibition at 15 µM [3]: 32.1%
N=C(NCc1cc(Cl)cc(Cl)c1)c1cc2ccccc2[nH]1 [Compound 38] | 159 | –
COc1cccc(CNC(=N)c2cc3cc(F)ccc3[nH]2)c1 [Compound 57] | 211 | –
CCOc1ccccc1CNC(=N)c1cc2cc(F)ccc2[nH]1 [Compound 59] | 51 | –
N=C(NCc1cc(F)ccc1F)c1cc2cc(F)ccc2[nH]1 [Compound 67] | 359 | –
Cc1ccccc1CNC(=N)c1cc2cc(F)ccc2[nH]1 [Compound 68] | 160 | –
N=C(NCc1cc(F)cc(F)c1)c1cc2cc(F)ccc2[nH]1 [Compound 70] | 594 | –
COc1ccc(OC)c(CNC(=N)c2cc3cc(F)ccc3[nH]2)c1 [Compound 71] | 453 | –
COc1cccc(OC)c1C/N=C(\N)c1cc2cc(F)ccc2[nH]1 [Compound 72] | 17 | –
N=C(NCc1cc(Cl)cc(Cl)c1)c1cc2cc(F)ccc2[nH]1 [Compound 73] | 209 | –
N=C(NCc1cccc(F)c1)c1cc2cc(Cl)ccc2[nH]1 [Compound 81] | 432 | –
COc1ccc(CNC(=N)c2cc3cc(Cl)ccc3[nH]2)c(OC)c1 [Compound 83] | 369 | –
N=C(NCc1ccccc1Cl)c1cc2cc(Cl)ccc2[nH]1 [Compound 87] | 422 | –
COc1cccc(CNC(=N)c2cc3cc(Cl)ccc3[nH]2)c1 [Compound 92] | 319 | –
CCOc1ccccc1CNC(=N)c1cc2cc(Cl)ccc2[nH]1 [Compound 94] | 213 | –
N=C(NCc1cccnc1)c1cc2cc(Cl)ccc2[nH]1 [Compound 97] | 125 | –

SMILES | IC50 [1, 4] [nM] | further results
N=C(NCc1cccc(Br)c1)c1cc2cc(Cl)ccc2[nH]1 [Compound 103] | 257 | –
N=C(NCc1ccccc1OC(F)(F)F)c1cc2cc(Cl)ccc2[nH]1 [Compound 106] | 198 | –
N=C(NCc1ccccc1F)c1cc2cc(Cl)ccc2[nH]1 [Compound 107] | 493 | –
N=C(NCc1c(F)cccc1F)c1cc2cc(Cl)ccc2[nH]1 [Compound 108] | 742 | –
Cc1ccccc1CNC(=N)c1cc2cc(Cl)ccc2[nH]1 [Compound 109] | 218 | –
N=C(NCc1cc(F)cc(F)c1)c1cc2cc(Cl)ccc2[nH]1 [Compound 110] | 702 | –
COc1ccc(OC)c(CNC(=N)c2cc3cc(Cl)ccc3[nH]2)c1 [Compound 111] | 417 | –
COc1cccc(OC)c1C/N=C(\N)c1cc2cc(Cl)ccc2[nH]1 [Compound 112] | 69 | –
COc1ccc2[nH]c(C(=N)NCc3ccccc3)cc2c1 [Compound 118] | 224 | –
COc1ccc2[nH]c(C(=N)NCc3ccccc3C(F)(F)F)cc2c1 [Compound 119] | 401 | –
COc1ccc(CNC(=N)c2cc3cc(OC)ccc3[nH]2)c(OC)c1 [Compound 123] | 129 | –
COc1ccc2[nH]c(C(=N)NCc3ccc(OC)c(OC)c3)cc2c1 [Compound 126] | 519 | –
COc1ccc2[nH]c(C(=N)NCc3cccc(Cl)c3)cc2c1 [Compound 127] | 373 | –
COc1ccc2[nH]c(C(=N)NCc3cccc(C)c3)cc2c1 [Compound 128] | 220 | –
COc1cccc(CNC(=N)c2cc3cc(OC)ccc3[nH]2)c1 [Compound 129] | 52 | –
CCOc1ccccc1CNC(=N)c1cc2cc(OC)ccc2[nH]1 [Compound 131] | 57 | –
COc1ccc2[nH]c(C(=N)NCc3cccnc3)cc2c1 [Compound 134] | 100 | inhibition at 15 µM [3]: 6.1%
COc1ccc2[nH]c(C(=N)NCc3ccccc3Br)cc2c1 [Compound 138] | 232 | –
COc1ccc2[nH]c(C(=N)NCc3cccc(Br)c3)cc2c1 [Compound 139] | 397 | –
COc1ccc2[nH]c(C(=N)NCc3cc(F)ccc3F)cc2c1 [Compound 142] | 202 | –
COc1ccc2[nH]c(C(=N)NCc3c(F)cccc3F)cc2c1 [Compound 143] | 158 | –
COc1ccc2[nH]c(C(=N)NCc3cc(F)cc(F)c3)cc2c1 [Compound 145] | 318 | –
COc1ccc(OC)c(CNC(=N)c2cc3cc(OC)ccc3[nH]2)c1 [Compound 146] | 287 | –
COc1ccc2[nH]c(C(=N)NCc3c(OC)cccc3OC)cc2c1 [Compound 147] | 26 | inhibition at 15 µM [3]: 21.7%
O=C(CCN1CCC(Cc2ccc(F)cc2)CC1)c1ccc2[nH]c(=O)oc2c1 [EMD 95885, reference compound] | 35 | NR1-3/NR2A % inhibition at 10 μM ([3]; 10 μM): 0.1%
CC(C(O)c1ccc(O)cc1)N1CCC(Cc2ccccc2)CC1 (stereo not drawn) [Erythro-ifenprodil, erythro-2-(4-benzylpiperidino)-1-(4-hydroxyphenyl)-1-propanol] | – | inhibition at 10 µM ([3]; 10 μM): -2.7%
CC(CN1CCC(Cc2ccccc2)CC1)C(O)c1ccc(O)cc1 (stereo not drawn) [Ro 25.6981, R-(R*,S*)-1-(4-hydroxyphenyl)-2-methyl-3-[4-(phenylmethyl)piperidin-1-yl]-1-propanol, reference compound] | – | IC50 [1]: 159 nM; inhibition at 10 µM ([3]; 10 μM): 1%
